Laboratory results published in paper PMC11123841, “Discovery and Synthesis of Hydroxy-L-Proline Blockers of the Neutral Amino Acid Transporters SLC1A4 (ASCT1) and SLC1A5 (ASCT2)” (Molecules, 2024).
Entries after “also recorded” stand apart in the source; their conditions may differ.

Assays:
SLC1A2 (EAAT2) = target: T1, SLC1A2 (EAAT2) (Homo sapiens, UniProt P43004); test: TEVC in oocytes expressing glutamate transporter; type: cell-based; settings: 10 µM L-glu current, read-out: IC50, block of glutamate current
T1 construct: expressed in transfected cells; host or cells: Xenopus laevis oocytes (cRNA injection)
T1 sequence (P43004 whole entry): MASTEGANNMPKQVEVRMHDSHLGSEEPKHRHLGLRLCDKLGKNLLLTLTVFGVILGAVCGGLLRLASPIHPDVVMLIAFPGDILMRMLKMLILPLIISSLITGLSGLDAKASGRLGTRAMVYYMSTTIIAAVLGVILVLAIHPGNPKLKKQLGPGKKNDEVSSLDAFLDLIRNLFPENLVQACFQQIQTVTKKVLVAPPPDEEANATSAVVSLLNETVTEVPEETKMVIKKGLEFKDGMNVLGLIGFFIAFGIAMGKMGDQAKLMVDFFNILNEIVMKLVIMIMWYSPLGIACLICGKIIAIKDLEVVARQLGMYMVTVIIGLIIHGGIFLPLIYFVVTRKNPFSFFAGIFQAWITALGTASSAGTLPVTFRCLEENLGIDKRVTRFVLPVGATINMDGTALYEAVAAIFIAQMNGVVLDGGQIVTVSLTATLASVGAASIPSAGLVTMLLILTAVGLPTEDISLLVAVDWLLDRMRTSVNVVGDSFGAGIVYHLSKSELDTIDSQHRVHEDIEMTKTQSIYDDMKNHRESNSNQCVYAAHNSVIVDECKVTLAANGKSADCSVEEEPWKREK
Description: (§1) BPOHP activity was evaluated against the glutamate transporters paralogs within the SLC1A gene family (SLC1A 1–3) as well as at neutral amino acid transporters that share common ligand substrates with the SLC1 family including SLC38A1,2, and 4 (ATA1, ATA2, ATA3) and heteromeric transporters SLC7A10+SLC3A2 (asc-1/4f2). […] Finally, radiolabeled [^3H]D-serine uptake was used to assess the electroneutral SLC7A10+SLC3A2 transporter, in which 10 µM BPOHP had no effect (Figure S3).
(§2) Uptake was halted by washing 3 times with 4 °C ND96 buffer. Oocytes were then lysed in 0.1% Triton X-100, and radioactivity was counted via liquid scintillation. Dose response curves were generated by fitting fractional inhibition (I) to the expression I = Imax × [inhibitor]/([inhibitor] + IC50).
Two-electrode voltage clamp (TEVC) transporter currents were recorded with a GeneClamp 500 amplifier and Digidata 1320A analog–digital interface (Molecular Devices, San Jose, CA, USA). […] Data were acquired with Axograph (v1.7.6) and LabChart (v7) and analyzed with Kaleidagraph software (v4.1) (Synergy, Reading, PA, USA). Uncoupled anion currents associated with the transport of substrate and block of SLC1A4 or SLC1A5 mediated leak conductance were recorded in the presence of Ringer with 50% substitution of NaCl by NaSCN to amplify the non-transported anion conductance. […]

[1] = target: T2, SLC3A2 (4f2) injected alone (Homo sapiens, UniProt P08195); test: [3H]D-serine uptake in oocytes; type: cell-based; settings: 10 µM BPOHP
T2 construct: expressed in transfected cells; host or cells: Xenopus laevis oocytes (cRNA injection)
T2 sequence (P08195 1-529): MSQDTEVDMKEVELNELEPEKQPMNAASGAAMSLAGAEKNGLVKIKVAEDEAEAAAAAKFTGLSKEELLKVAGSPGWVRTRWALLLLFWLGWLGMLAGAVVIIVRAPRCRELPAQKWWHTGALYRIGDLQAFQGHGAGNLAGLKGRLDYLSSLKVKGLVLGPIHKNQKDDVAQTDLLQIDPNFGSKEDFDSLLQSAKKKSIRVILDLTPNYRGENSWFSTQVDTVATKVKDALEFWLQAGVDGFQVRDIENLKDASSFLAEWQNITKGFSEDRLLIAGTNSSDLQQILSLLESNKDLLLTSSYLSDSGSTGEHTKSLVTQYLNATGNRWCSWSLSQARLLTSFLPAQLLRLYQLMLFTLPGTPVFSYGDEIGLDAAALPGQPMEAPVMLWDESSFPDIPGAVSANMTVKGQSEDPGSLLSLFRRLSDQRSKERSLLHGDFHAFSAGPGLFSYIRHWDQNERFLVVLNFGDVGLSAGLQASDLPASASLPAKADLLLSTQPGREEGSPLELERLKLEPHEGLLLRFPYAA
Description: (§3) Figure SM-3A. Representative traces showing 100µM L-Ala currents and co-application of 3µM BPOHP (black bar) with no effect on SLC38A neutral amino acid transporters SLC38A1(ATA1), SLC38A2 (ATA2), and SLC38A4 (ATA3). SM-3B. [3H]D-serine uptake (100nM) in SLC1A4 is blocked by BPOHP (10µM), however, [ 3H]D-serine uptake by co -expressed SLC7A10+SLC3A2 (asc1+4F2) nor SLC3A2 (4f2) expressed (injected) alone was blocked by application of 10µM BPOHP.
(§4) Figure SM-4. Tosic acid approach to compound 12c. (i) Tosylic acid 0.1M in THF 60◦C. (ii) Phenol and NaH in DCM, 40◦C under argon balloon (iii) 10% Pd/C (10% w/eq.), H2, MeOH, H2O, […]
S.Figure 3 A. Representative traces showing 100uM L-Ala currents and co-application of 3uM BPOHP (black bar) with no effect on SLC38A neutral amino acid transporters SLC38A1(ATA1), SLC38A2 (ATA2), and SLC38A4 (ATA3). B. [3H]D-serine uptake (100nM) in SLC1A4 is blocked by BPOHP (10uM), but not the H3D-serine uptake by […]

[2] = test system: glutamate transporters (SLC1A 1–3); test: Inhibition of the glutamate transporters, general statement; type: cell-based, human
Description: as §1
High resolution structural models for SLC1A4 and SLC1A5 have been developed. These models reinforce our SLC1A5 homology model derived from the archaeal glutamate transporter. […] While preparing this manuscript, inhibitors of SLC1A5 of a similar design to our alkoxy-hydroxyprolines were reported with ligand-bound high-resolution EM models. These reported EM models help validate our docking solutions with respect to mode of binding within our homology model. We emphasize that our discoveries and modeling of these hydroxyproline/AHPC inhibitors targeting SLC1A4 and SLC1A5, as documented in the public domain [66, 67], predates these reports and is yet to be properly referenced/cited. […] This nonselective SLC1 inhibition, observed with BPOHP, may be attributed to entropic contributions resulting from the biphenyl moiety occupying an adjacent hydrophobic pocket.

[3] = target: T3, SLC7A10+SLC3A2 (asc-1/4f2) (Homo sapiens, UniProt Q9NS82); test: [3H]D-serine uptake in oocytes; type: cell-based; settings: 10 µM BPOHP
T3 construct: expressed in transfected cells; host or cells: Xenopus laevis oocytes (cRNA co-injection)
T3 sequence (Q9NS82 1-523): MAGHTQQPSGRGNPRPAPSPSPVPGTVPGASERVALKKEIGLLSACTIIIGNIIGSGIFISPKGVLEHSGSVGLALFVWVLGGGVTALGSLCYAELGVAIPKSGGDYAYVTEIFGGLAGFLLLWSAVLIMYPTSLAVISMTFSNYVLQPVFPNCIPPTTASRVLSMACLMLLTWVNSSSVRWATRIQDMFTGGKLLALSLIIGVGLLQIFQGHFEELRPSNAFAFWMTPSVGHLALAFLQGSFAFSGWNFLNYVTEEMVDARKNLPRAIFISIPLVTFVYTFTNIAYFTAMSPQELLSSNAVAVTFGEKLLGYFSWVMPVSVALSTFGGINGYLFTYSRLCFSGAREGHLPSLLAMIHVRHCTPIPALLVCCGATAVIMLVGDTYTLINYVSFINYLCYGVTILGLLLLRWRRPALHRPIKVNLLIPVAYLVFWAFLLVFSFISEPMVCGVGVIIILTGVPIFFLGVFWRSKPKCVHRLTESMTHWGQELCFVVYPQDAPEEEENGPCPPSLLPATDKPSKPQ
T3 sequence (P08195 1-529 partner): T2 sequence (P08195 1-529)
Description: as §1, §2, §3, §4

IC50 (SLC1A2 (EAAT2)): 1200 nM | effect on [3H]D-serine uptake [1]: no effect
SMILES: O=C(O)[C@H]1NC[C@@H](OCc2ccc(-c3ccccc3)cc2)[C@@H]1O [14e]
inhibition of the glutamate transporters [2]: low micromolar range | effect on [3H]D-serine uptake [3]: no effect; also recorded: no inhibition was detected
